Measured values: article PMC5415745, “Drug-transporter mediated interactions between anthelminthic and antiretroviral drugs across the Caco-2 cell monolayers” (BMC Pharmacology & Toxicology, 2017)
Several values for one entry are separate records, joined by “and”; a condition that tells them apart may be missing. Equal values may be shown once.

Experiments:
[1] = system: P-gp; details: CEM parental and CEMVBL cells; cited from earlier work
[2] = in vitro; details: human, Mean
Method: (§1) The monolayers used were of between passage 20 and 65 after 15 days of growth. Each experiment was performed in duplicate using two six well-transwell culture plates. The cells were trypsinized as described earlier, and after centrifugation the pellet re-suspended in fresh DMEM (+15%), and the cells counted using a cell counter. A volume of DMEM was added enough to give a cell count of 2 × 10^6 cells per ml, and cells were seeded on the transwell culture plates at a density of 2 × 10^4 cells/cm^2 (~ 100,000 cells per well, since insert membrane growth area = 4.67 cm^2). The plates were then incubated at 37°C and 10% CO2 in a humidified chamber and the media changed every 2-3 days, by aspirating using a suction pump and replacing with an equal volume of DMEM. Transport experiments were conducted 15 to 20 days after seeding. The TEER across the cell monolayers was monitored using a Millicell-ERS in order to assess cell monolayer integrity and the monolayers considered appropriate for the experiment when the TEER values were typically above 500 cm^2 [49, 70].
(§2) Prior to transport studies, each monolayer was washed and equilibrated with the transport medium (DMEM without FBS). The medium was removed from all AP and BL compartments of the transwells and replaced with 2 ml of the transport medium (DMEM alone), to both compartments and equilibrated for 1 h (37°C, 10% CO2 incubator), after which the TEER was re-assessed and labeled. The medium was then removed from both compartments and replaced with an equal volume of pre-warmed medium containing the compound of interest at the appropriate concentration. For the AP → BL transport, 2 ml of medium containing the desired drug was placed in the AP chamber and 2 ml of the medium alone in the BL chamber, whereas 2 ml of medium containing the drug was placed in the BL and 2 ml of medium on the AP chamber for the BL → AP transport [71]. The effect of the second drug was then assessed by adding the medium containing the original drug and the drug under study to the AP side for AP → BL transport with the medium containing the original drug alone in the BL chamber, and vice-versa for the BL → AP transport. Transport in each direction was done in triplicate. The transwell plates were then incubated (37°C, 10% CO2 incubator), and 100μl of the samples from the AP and BL compartments were taken at 60, 120, 180 and 240 min and quantified either by HPLC method described earlier [45], or by the use of a liquid scintillating counter depending on the drug under study. The HPLC method involved liquid - liquid extraction followed by ultra-high performance liquid chromatography using a Hypurity C18 column and ultraviolet detection set at a wavelength of 215 nm. The mobile phase consisted of ammonium formate, acetonitrile and methanol (57:38:5 v/v). Separation was facilitated via isocratic elution at a flow rate of 1.5 ml/min. For HPLC assays, the concentration used for each drug was 20μg/ml. The concentrations that offered the best detection were selected for radiolabeled assay. […] The integrity of the CCM during the experiment was monitored by measuring the TEER at the beginning (0 min) and the end of the experiment (240min).
(§3) The results were expressed as apparent permeability coefficient (Papp, unit: cms^-1), the amount of compound transported per second. Papp values were calculated for both AP to BL (PappAtoB), and BL to AP (PappBtoA) movement of the compound. Papp was calculated using the following equation [52, 72]: • Papp (cm/s) = (dQ/dt) x (1/(ACO) • dQ/dt = Steady-state flux (dpm s^-1 or μmol s^-1) • A = Surface area of the filter (cm^2) • CO = Initial concentration in the donor chamber (dpm litre ^-1 or μM)
(§4) The quotient of secretory permeability and absorptive permeability (PappBL-AP/PappAP-BL) constitutes the efflux ratio, while the reverse (PappAP-BL/PappBL-AP) is the uptake ratio [71].

[3] = system: Caco-2 cell monolayers; test: Bidirectional (AP→BL, BL→AP) drug transport across Caco-2 cell monolayers in transwells: cumulative transport, Papp, efflux ratio; HPLC or radiolabeled assay; details: for Basal to apical transport (cumulative, receiver): individual samples 1-3; for PappAB / PappBA: individual samples; for Apical to basal transport / Basal to apical transport: samples 1-3
Method: as §1, §2, §3, §4

[4] = PZQ alone (EFV experiment), 60 min
[5] = PZQ alone (EFV experiment), 120 min, mean
[6] = PZQ alone (EFV experiment), 120 min
[7] = PZQ alone (EFV experiment), 180 min, mean
[8] = PZQ alone (EFV experiment), 180 min
[9] = PZQ alone (EFV experiment), 240 min, mean
[10] = PZQ alone (EFV experiment), 240 min
[11] = PZQ alone (NVP experiment), 60 min, mean
[12] = PZQ alone (NVP experiment), 60 min
[13] = PZQ alone (NVP experiment), 120 min, mean
[14] = PZQ alone (NVP experiment), 120 min
[15] = PZQ alone (NVP experiment), 180 min, mean
[16] = PZQ alone (NVP experiment), 180 min
[17] = PZQ alone (NVP experiment), 240 min, mean
[18] = PZQ alone (NVP experiment), 240 min
[19] = PZQ alone (SQV experiment), 60 min, mean
[20] = PZQ alone (SQV experiment), 60 min
[21] = PZQ alone (SQV experiment), 120 min, mean
[22] = PZQ alone (SQV experiment), 120 min
[23] = PZQ alone (SQV experiment), 180 min, mean
[24] = PZQ alone (SQV experiment), 180 min
[25] = PZQ alone (SQV experiment), 240 min, mean
[26] = PZQ alone (SQV experiment), 240 min
[27] = PZQ alone (SQV experiment), after 60min
[28] = PZQ alone (SQV experiment), after 60min, mean
[29] = labelled drug is the interacting drug

O=C(C1CCCCC1)N1CC(=O)N2CCc3ccccc3C2C1 (centres unmarked) [PZQ, praziquantel]
P-gp substrate / inhibitor status [1]: neither a substrate nor an inhibitor of P-gp | Papp A→B at 7200 sec ([2]; Caco-2, PappAB): 63.8 ×10⁻⁶ cm/s | Papp A→B at 10800 sec ([2]; Caco-2, PappAB): 57.7 ×10⁻⁶ cm/s | Papp A→B at 14400 sec ([2]; Caco-2, PappAB): 53.9 ×10⁻⁶ cm/s | Papp B→A at 7200 sec ([2]; Caco-2, PappBA): 57.2 ×10⁻⁶ cm/s | Papp B→A at 10800 sec ([2]; Caco-2, PappBA): 47.9 ×10⁻⁶ cm/s | Papp B→A at 14400 sec ([2]; Caco-2, PappBA): 49.6 ×10⁻⁶ cm/s | Basal to apical transport (cumulative, receiver) ([3]; 60 min): 16.40 pmol and 16.26 pmol and 17.14 pmol | Apical to basal transport (cumulative, receiver), Mean ([3]; 60 min, mean n=3): 15.06 pmol | Basal to apical transport (cumulative, receiver), Mean ([3]; 60 min, mean n=3): 16.60 pmol | PappAB ([3]; 3600 sec): 89.9 ×10⁻⁶ cm/s and 62.5 ×10⁻⁶ cm/s and 76.8 ×10⁻⁶ cm/s | PappBA ([3]; 3600 sec): 84.6 ×10⁻⁶ cm/s and 77.5 ×10⁻⁶ cm/s and 95.4 ×10⁻⁶ cm/s | PappAB Mean ([3]; 3600 sec, mean n=3): 76.4 ×10⁻⁶ cm/s | PappBA Mean ([3]; 3600 sec, mean n=3): 85.8 ×10⁻⁶ cm/s | Basal to apical transport (cumulative, receiver) ([3]; 120 min): 20.68 pmol and 19.96 pmol and 21.78 pmol | Apical to basal transport (cumulative, receiver), Mean ([3]; 120 min, mean n=3): 22.74 pmol | Basal to apical transport (cumulative, receiver), Mean ([3]; 120 min, mean n=3): 20.81 pmol | PappAB ([3]; 7200 sec): 65.5 ×10⁻⁶ cm/s and 65.7 ×10⁻⁶ cm/s and 60.2 ×10⁻⁶ cm/s | PappBA ([3]; 7200 sec): 56.2 ×10⁻⁶ cm/s and 57.9 ×10⁻⁶ cm/s and 57.5 ×10⁻⁶ cm/s | Basal to apical transport (cumulative, receiver) ([3]; 180 min): 26.18 pmol and 23.22 pmol | Apical to basal transport (cumulative, receiver), Mean ([3]; 180 min, mean n=3): 27.30 pmol | Basal to apical transport (cumulative, receiver), Mean ([3]; 180 min, mean n=3): 23.94 pmol | PappAB ([3]; 10800 sec): 58.3 ×10⁻⁶ cm/s and 51.6 ×10⁻⁶ cm/s and 63.2 ×10⁻⁶ cm/s | PappBA ([3]; 10800 sec): 56.6 ×10⁻⁶ cm/s and 41.1 ×10⁻⁶ cm/s and 46 ×10⁻⁶ cm/s | Basal to apical transport (cumulative, receiver) ([3]; 240 min): 26.24 pmol and 28.48 pmol and 32.82 pmol | Apical to basal transport (cumulative, receiver), Mean ([3]; 240 min, mean n=3): 32.95 pmol | Basal to apical transport (cumulative, receiver), Mean ([3]; 240 min, mean n=3): 29.18 pmol | PappAB ([3]; 14400 sec): 54.4 ×10⁻⁶ cm/s and 52 ×10⁻⁶ cm/s and 55.5 ×10⁻⁶ cm/s | PappBA ([3]; 14400 sec): 50.1 ×10⁻⁶ cm/s and 43.3 ×10⁻⁶ cm/s and 55.4 ×10⁻⁶ cm/s | Basal to apical transport Mean ([3]; PZQ alone (EFV experiment), 60 min, mean): 26.40 pmol | Apical to basal transport [3, 4]: 33.50 pmol and 22.28 pmol and 39.18 pmol | Basal to apical transport [3, 4]: 25.94 pmol and 27.98 pmol and 25.28 pmol | Apical to basal transport Mean [3, 5]: 37.71 pmol | Basal to apical transport Mean [3, 5]: 46.61 pmol | Apical to basal transport [3, 6]: 45.74 pmol and 32.50 pmol and 34.88 pmol | Basal to apical transport [3, 6]: 49.34 pmol and 35.84 pmol and 54.66 pmol | Apical to basal transport Mean [3, 7]: 54.47 pmol | Basal to apical transport Mean [3, 7]: 58.63 pmol | Apical to basal transport [3, 8]: 46.84 pmol and 53.00 pmol and 63.58 pmol | Basal to apical transport [3, 8]: 53.14 pmol and 51.00 pmol and 71.74 pmol | Apical to basal transport Mean [3, 9]: 71.45 pmol | Basal to apical transport Mean [3, 9]: 67.31 pmol | Apical to basal transport [3, 10]: 50.62 pmol and 68.96 pmol and 94.76 pmol | Basal to apical transport [3, 10]: 74.78 pmol and 75.20 pmol | Apical to basal transport Mean [3, 11]: 23.43 pmol | Basal to apical transport Mean [3, 11]: 25.07 pmol | Apical to basal transport [3, 12]: 22.50 pmol and 22.28 pmol and 25.50 pmol | Basal to apical transport [3, 12]: 23.94 pmol and 25.98 pmol and 25.28 pmol | Apical to basal transport Mean [3, 13]: 39.93 pmol | Basal to apical transport Mean [3, 13]: 49.95 pmol | Apical to basal transport [3, 14]: 34.88 pmol and 39.18 pmol and 45.74 pmol | Basal to apical transport [3, 14]: 49.34 pmol and 45.84 pmol and 54.66 pmol | Apical to basal transport Mean [3, 15]: 50.15 pmol | Basal to apical transport Mean [3, 15]: 54.69 pmol | Apical to basal transport [3, 16]: 46.84 pmol and 53.00 pmol and 50.62 pmol | Basal to apical transport [3, 16]: 53.14 pmol and 59.00 pmol | Apical to basal transport Mean [3, 17]: 69.10 pmol | Basal to apical transport Mean [3, 17]: 73.24 pmol | Apical to basal transport [3, 18]: 63.58 pmol and 68.96 pmol and 74.76 pmol | Basal to apical transport [3, 18]: 65.74 pmol and 78.78 pmol and 75.20 pmol | Apical to basal transport Mean [3, 19]: 15.06 pmol | Basal to apical transport Mean [3, 19]: 16.60 pmol | Apical to basal transport [3, 20]: 16.68 pmol and 13.02 pmol and 15.48 pmol | Basal to apical transport [3, 20]: 16.40 pmol and 16.26 pmol and 17.14 pmol | Apical to basal transport Mean [3, 21]: 22.74 pmol | Basal to apical transport Mean [3, 21]: 20.81 pmol | Apical to basal transport [3, 22]: 22.40 pmol and 22.80 pmol and 23.02 pmol | Basal to apical transport [3, 22]: 19.96 pmol and 21.78 pmol and 20.68 pmol | Apical to basal transport Mean [3, 23]: 27.30 pmol | Basal to apical transport Mean [3, 23]: 23.94 pmol | Apical to basal transport [3, 24]: 28.02 pmol | Basal to apical transport [3, 24]: 26.18 pmol and 23.22 pmol | Apical to basal transport Mean [3, 25]: 32.95 pmol | Basal to apical transport Mean [3, 25]: 29.18 pmol | Apical to basal transport [3, 26]: 30.94 pmol and 32.48 pmol and 35.44 pmol | Basal to apical transport [3, 26]: 26.24 pmol and 28.48 pmol and 32.82 pmol | PappAB [3, 27]: 8.99 ×10⁻⁶ cm/s and 6.25 ×10⁻⁶ cm/s and 7.68 ×10⁻⁶ cm/s | PappBA [3, 27]: 8.46 ×10⁻⁶ cm/s and 7.75 ×10⁻⁶ cm/s and 9.54 ×10⁻⁶ cm/s | PappAB Mean [3, 28]: 7.64 ×10⁻⁶ cm/s | PappBA Mean [3, 28]: 8.58 ×10⁻⁶ cm/s | PappAB ([3]; PZQ alone, MOESM4): 89.9 ×10⁻⁶ cm/s and 62.5 ×10⁻⁶ cm/s and 76.8 ×10⁻⁶ cm/s | PappBA ([3]; PZQ alone, MOESM4): 84.6 ×10⁻⁶ cm/s and 77.5 ×10⁻⁶ cm/s and 95.4 ×10⁻⁶ cm/s | ER Mean ([3]; PZQ alone, mean, MOESM4): 1.14 | PappAB Mean (x10^6) ([3]; PZQ alone, mean, MOESM4): 7.64 x10^6 cm/s | Effect on the (efflux) transport of SQV [3, 29]: did not alter | Effect on the transport of ARVs [3, 29]: did not appear to significantly influence
